Test results: patent US7795315B2, “N-(2-amino-phenyl)-amide derivatives” (Hoffman-La Roche Inc., priority 2008, dated 2010)

What was measured:
Assay type in all cases: cell-based
[1] = tested on: klf2 promoter-luciferase construct in A204 cells; assay: klf2 reporter gene induction (p21 versus klf2 selectivity); conditions: SNDX-275 p21/klf2 ratio defined as 1.0; for p21/klf2 (RP3): relative selectivity compared with SNDX-275: 3 micromolar; for p21/klf2 (RP10): relative selectivity compared with SNDX-275: 10 micromolar
Method: (§1) The novel compounds of the present invention were tested for their ability to induce p21 gene expression using a reporter gene assay involving HeLa cells transfected with a p21 promoter-luciferase construct. The p21 promoter contained the Sp1/Sp3 binding site for HDAC but not the upstream p53 binding site. Briefly, the day before transfection, HeLa cells were seeded at 11,000 cells/well in a 96-well culture plate and incubated at 37 degrees Celsius in 5% CO2 overnight. For transfection, the medium was removed and replaced with 100 microliters/well transfection media previously prepared as follows: 5 microliters serum-free DMEM, 0.15 microliters Fugene 6 reagent, 40 ng p21-luc, 10 ng GFP were mixed gently and incubated at room temperature for 30 minutes; then 98 microliters DMEM (with 10% FBS, 1% penicillin and streptomycin) was added to the DNA:Fugene 6 reagent complex and mixed gently. After incubating the cells for 24 hours at 37 degrees Celsius in 5% CO2, fresh media and test compounds were added to the wells and the cells further incubated for 15 hours at 37 degrees Celsius in 5% CO2. Cells were lysed by adding 80 microliters/well of a cell culture lysis reagent (Promega). 50 microliters of each lysate was taken for GFP detection using an excitation wavelength of 486 nm and detection at 527 nm. 100 microliters Luciferase assay reagent (Promega) was then added to every 20 microliters cell lysate for luminometer detection. […] Induction activity for specific representative compounds can be found in Table 4.
The novel compounds of the present invention were tested for their ability to induce klf2 gene expression using a reporter gene assay involving A204 cells transfected with a klf2 promoter-luciferase construct. The klf2 promoter contained the MEF2 binding site for HDAC3/class IIa HDAC complex. Briefly, the day before transfection, A204 cells were seeded at 11,000 cells/well in a 96-well culture plate and incubated at 37 degrees Celsius in 5% CO2 overnight. For transfection, the medium was removed and replaced with 100 microliters/well transfection media previously prepared as follows: 5 microliters serum-free DMEM, 0.15 microliters Fugene 6 reagent, 40 ng klf2-luc, 10 ng GFP were mixed gently and incubated at room temperature for 30 minutes; then 98 microliters DMEM (with 10% FBS, 1% penicillin and streptomycin) was added to the DNA:Fugene 6 reagent complex and mixed gently. After incubating the cells for 24 hours at 37 degrees Celsius in 5% CO2, fresh media and test compounds were added to the wells and the cells further incubated for 15 hours at 37 degrees Celsius in 5% CO2. Finally, 10 ng/ml TNF-α was added and the cells further incubated for 4 hours. Cells were lysed by adding 80 microliters/well of a cell culture lysis reagent (Promega). 50 microliters of each lysate was taken for GFP detection using an excitation wavelength of 486 nm and detection at 527 nm. 100 microliters Luciferase assay reagent (Promega) was then added to every 20 microliters cell lysate for luminometer detection.

[2] = tested on: HCT-116 colon cancer cells; assay: Antiproliferative activity, growth inhibition (MTS/WST assay); conditions: Homo sapiens, 72 hour growth inhibition, read-out: GI50 HCT116
Method: The novel compounds of the present invention were tested for their ability to inhibit growth of various cancer cell lines (HeLa, MCF7, U2OS, HepG2, HL60, HCT-116) using in vitro growth inhibition assays described below.
Cells were seeded in 96-well culture plates (200 microliters/well at different seeding concentrations depending on cell type) and incubated overnight at 37 degrees Celsius in 5% CO2. After adding compound dilutions to the cells (DMSO concentration kept below 0.5%), the cells were incubated at 37 degrees Celsius in 5% CO2 for 72 hours. The effects on proliferation were determined by addition of MTS reagent (Promega) according to the manufacturer's instruction, followed by incubation for 2 hours at 37 degrees Celsius in 5% CO2, and finally recording the absorbance at 490 nm using an ELISA plate reader.
Similar to MTS assay except that the developer is the CCK-8 reagent (Dojindo) and the plate reader is set to 450 nm absorbance.
GI50 values against HCT-116 colon cancer cells for specific representative compounds can be found in Table 4.

[3] = tested on: p21 promoter-luciferase construct in HeLa cells; assay: p21 reporter gene induction; conditions: 3 micromolar, 15 hours, relative to SNDX-275
Method: as §1

Row | SMILES | p21/klf2 (RP3): relative selectivity compared with SNDX-275 [1] | p21/klf2 (RP10): relative selectivity compared with SNDX-275 [1] | GI50 [2] [nM] | p21 (RP3): relative induction potency compared with SNDX-275 [3] [%]
1 | Nc1ccccc1NC(=O)/C=C/c1ccc(C(C(=O)Nc2ccc(C(F)(F)F)cc2)N2CCCCC2)cc1 (stereo not drawn) [Example 9-29, (E)-N-(2-Amino-phenyl)-3-{4-[piperidin-1-yl-(4-trifluoromethyl-phenylcarbamoyl)-methyl]-phenyl}-acrylamide] | 0.3 | 0.5 | 7100 | 10
2 | Nc1ccccc1NC(=O)/C=C/c1ccc(C(NCCN2CCOCC2)C(=O)Nc2ccc(C(F)(F)F)c(Cl)c2)cc1 (stereo not drawn) [Example 4-29, (E)-N-(2-Amino-phenyl)-3-{4-[(3-chloro-4-trifluoromethyl-phenylcarbamoyl)-(2-morpholin-4-yl-ethylamino)-methyl]-phenyl}-acrylamide] | 0.6 | 2.3 | 2100 | 48
3 | Nc1ccccc1NC(=O)/C=C/c1ccc(C(NCCN2CCOCC2)C(=O)Nc2ccc(C(F)(F)F)cn2)cc1 (stereo not drawn) [Example 4-43, (E)-N-(2-Amino-phenyl)-3-{4-[(2-morpholin-4-yl-ethylamino)-(5-trifluoromethyl-pyridin-2-ylcarbamoyl)-methyl]-phenyl}-acrylamide] | 0.9 | 2.1 | 2200 | 89
4 | Nc1ccccc1NC(=O)/C=C/c1ccc(C(C(=O)Nc2ccc(C(F)(F)F)cc2)N2CCOCC2)cc1 (stereo not drawn) [Example 9-10, (E)-N-(2-Amino-phenyl)-3-{4-[morpholin-4-yl-(4-trifluoromethyl-phenylcarbamoyl)-methyl]-phenyl}-acrylamide] | 1.0 | 1.6 | 1100 | 80
5 | CN(C)CCNC(C(=O)Nc1ccc(OC(F)(F)F)cc1)c1ccc(/C=C/C(=O)Nc2ccccc2N)cc1 (stereo not drawn) [Example 4-6, (E)-N-(2-Amino-phenyl)-3-{4-[(2-dimethylamino-ethylamino)-(4-trifluoromethoxy-phenylcarbamoyl)-methyl]-phenyl}-acrylamide] | 1.4 | 3.0 | 600 | 184
6 | Nc1ccccc1NC(=O)/C=C/c1ccc(C(C(=O)Nc2ccc(C(F)(F)F)cc2)N2CCNCC2)cc1 (stereo not drawn) [Example 9-7, (E)-N-(2-Amino-phenyl)-3-{4-[piperazin-1-yl-(4-trifluoromethyl-phenylcarbamoyl)-methyl]-phenyl}-acrylamide] | 0.5 | 2.1 | 2500 | 54
7 | Nc1ccccc1NC(=O)/C=C/c1ccc(C(NCCO)C(=O)Nc2ccc(C(F)(F)F)cc2)cc1 (stereo not drawn) [Example 4-69, (E)-N-(2-Amino-phenyl)-3-{4-[(2-hydroxy-ethylamino)-(4-trifluoromethyl-phenylcarbamoyl)-methyl]-phenyl}-acrylamide] | 1.0 | 2.3 | 1700 | 117
8 | Nc1ccccc1NC(=O)/C=C/c1ccc(C(NCCN2CCSCC2)C(=O)Nc2ccc(C(F)(F)F)cc2)cc1 (stereo not drawn) [Example 4-14, (E)-N-(2-Amino-phenyl)-3-{4-[(2-thiomorpholin-4-yl-ethylamino)-(4-trifluoromethyl-phenylcarbamoyl)-methyl]-phenyl}-acrylamide] | 1.2 | 5.1 | 600 | 84
9 | Nc1ccccc1NC(=O)/C=C/c1ccc(C(NCCN2C[C@@H]3C[C@H]2CO3)C(=O)Nc2ccc(C(F)(F)F)cc2)cc1 (stereo partly drawn) [Example 4-12, (E)-N-(2-Amino-phenyl)-3-{4-[[(1S,4S)-2-(2-oxa-5-aza-bicyclo[2.2.1]hept-5-yl)-ethylamino]-(4-trifluoromethyl-phenylcarbamoyl)-methyl]-phenyl}-acrylamide] | 10.6 | 0.8 | 400 | 167
10 | CC(C)(C)c1ccc(NC(=O)C(NCCO)c2ccc(/C=C/C(=O)Nc3ccccc3N)cc2)cc1 (stereo not drawn) [Example 4-68, (E)-N-(2-Amino-phenyl)-3-{4-[(4-tert-butyl-phenylcarbamoyl)-(2-hydroxy-ethylamino)-methyl]-phenyl}-acrylamide] | 0.5 | 1.3 | 3700 | 41
11 | Nc1ccccc1NC(=O)/C=C/c1ccc(C(NCCN2CCOCC2)C(=O)Nc2ccc(Br)cc2)cc1 (stereo not drawn) [Example 9-1, (E)-N-(2-Amino-phenyl)-3-{4-[(4-bromo-phenylcarbamoyl)-(2-morpholin-4-yl-ethylamino)-methyl]-phenyl}-acrylamide] | 1.0 | 2.2 | 1000 | 144
12 | Nc1ccccc1NC(=O)/C=C/c1ccc(C(NCCN2CCOCC2)C(=O)Nc2ccc(C(F)(F)F)cc2F)cc1 (stereo not drawn) [Example 4-22, (E)-N-(2-Amino-phenyl)-3-{4-[(2-fluoro-4-trifluoromethyl-phenylcarbamoyl)-(2-morpholin-4-yl-ethylamino)-methyl]-phenyl}-acrylamide] | 1.8 | 2.0 | 1200 | 103
13 | CNC(C(=O)Nc1ccc(C(F)(F)F)cc1)c1ccc(/C=C/C(=O)Nc2ccccc2N)cc1 (stereo not drawn) [Example 9-17, (E)-N-(2-Amino-phenyl)-3-{4-[methylamino-(4-trifluoromethyl-phenylcarbamoyl)-methyl]-phenyl}-acrylamide] | 1.3 | 1.9 | 1900 | 84
14 | Nc1ccccc1NC(=O)/C=C/c1ccc(C(NCCN2CCOCC2)C(=O)Nc2ccc(Cl)cc2)cc1 (stereo not drawn) [Example 30-33, (E)-N-(2-Amino-phenyl)-3-{4-[(4-chloro-phenylcarbamoyl)-(2-morpholin-4-yl-ethylamino)-methyl]-phenyl}-acrylamide] | 2.1 | 1.2 | 900 | 193
15 | Nc1ccccc1NC(=O)/C=C/c1ccc(C(NCCN2CCOCC2)C(=O)Nc2ccc(C(F)(F)F)c(F)c2)cc1 (stereo not drawn) [Example 4-36, (E)-N-(2-Amino-phenyl)-3-{4-[(3-fluoro-4-trifluoromethyl-phenylcarbamoyl)-(2-morpholin-4-yl-ethylamino)-methyl]-phenyl}-acrylamide] | 0.7 | 3.1 | 2000 | 43
